Patent US20130029942A1, “COMPOUNDS AND THERAPEUTICAL USES THEREOF” (Myrexis, Inc., priority 2003, published 2013)
Like-named read-outs stand apart in the source and are kept apart here.

Test system: T-47D cells
Test: Caspase cascade activation / induction of apoptosis in T-47D cells (fluorogenic N-(Ac-DEVD)-N'-ethoxycarbonyl-R110 substrate)
Format: cell-based, human
Conditions: for EC50: Homo sapiens, T47D
[1] = T-47D, 48 hr, benzohydrazide table, read-out: T-47D (48 hr) EC50
[2] = T-47D, 48 hr, benzohydrazide table
[3] = T-47D, 24 hr, read-out: T-47D (24 hr) EC50
[4] = T-47D, 48 hr, read-out: T-47D (48 hr) EC50

SMILES	EC50 [1]	T-47D (48 hr) Ratio [2]	EC50 [3]	EC50 [4]	other results
CSc1nc(N(C)NC(=O)c2ccc(Cl)cc2)c2ccccc2n1	138 nM	14.4			
CSc1nc(N(C)NC(=O)c2cccs2)c2ccccc2n1	737 nM	10.1			
CSc1nc(N(C)NC(=O)c2ccccc2)c2ccccc2n1	149 nM	14.7			
CN(NC(=O)c1ccccc1F)c1nc(C(F)(F)F)nc2ccccc12	184 nM	13.7			
CSc1nc(N(C)NC(=O)c2ccc(F)cc2)c2ccccc2n1	290 nM	13.8			
CSc1nc(N(C)NC(=O)c2cccc(C)c2)c2ccccc2n1	46 nM	12.7			
COc1ccc(C(=O)NN(C)c2nc(C(F)(F)F)nc3ccccc23)cc1	39 nM	13.1			
CN(c1ccc(Cl)cc1)c1nc(Cl)nc2ccccc12 [Example 3, (2-Chloro-quinazolin-4-yl)-(4-chloro-phenyl)-methyl-amine]			79 nM		
CN(c1ccc([N+](=O)[O-])cc1)c1nc(Cl)nc2ccccc12 [Example 4, (2-Chloro-quinazolin-4-yl)-(4-nitro-phenyl)-methyl-amine]			872 nM		
CN(c1ccc(OC(F)(F)F)cc1)c1nc(Cl)nc2ccccc12 [Example 5, (2-Chloro-quinazolin-4-yl)-(4-trifluoromethoxy-phenyl)-methyl-amine]			24 nM		
Cc1ccc(Nc2nc(Cl)nc3ccccc23)cc1 [Example 8, (2-Chloro-quinazolin-4-yl)-(4-methyl-phenyl)-amine]			> 10000 nM		
COc1ccc2c(ccn2-c2nc(Cl)nc3ccccc23)c1 [Example 9, 2-Chloro-4-(5-methoxyindol-1-yl)quinazoline]				> 10000 nM	
COc1ccc(N(C)c2nc(NO)nc3ccccc23)cc1 [Example 10, N^2-Hydroxyl-N^4-(4-methoxy-phenyl)-N^4-methyl-quinazoline-2,4-diamine]				48 nM	
COc1ccc(N(C)c2nc(NCCO)nc3ccccc23)cc1 [Example 11, N^2-(2-Hydroxylethyl)-N^4-(4-methoxy-phenyl)-N^4-methyl-quinazoline-2,4-diamine]			8 nM	10 nM	
COc1ccc(N(C)c2nc(N)nc3ccccc23)cc1 [Example 12, N^4-(4-Methoxy-phenyl)-methyl-quinazoline-2,4-diamine]			8 nM	9 nM	EC50 (Table III, time not given, repeats 24 hr or 48 hr T-47D values of Table I, read-out: Caspase activation (EC50 nM)): 8 nM
COc1ccc(N(C)c2nc(NCCN3CCOCC3)nc3ccccc23)cc1 [Example 14, N^4-(4-Methoxy-phenyl)-N^4-methyl-N^2-(2-morpholin-4-yl-ethyl)-quinazoline-2,4-diamine]			1340 nM	1330 nM	
COc1ccc(N(C)c2nc(N3CCOCC3)nc3ccccc23)cc1 [Example 15, (4-Methoxy-phenyl)-methyl-(2-morpholin-4-yl-quinazolin-4-yl)-amine]			56 nM	89 nM	
CC(C)=CCC/C(C)=C/CNc1nc(N(C)c2ccc(C)cc2)c2ccccc2n1 [Example 16, N^2-(3,7-Dimethyl-octa-2,6-dienyl)-N^4-(4-methyl-phenyl)-N^4-methyl-quinazoline-2,4-diamine]			296 nM		
COc1ccc(N(C)c2nc(N)nc3[nH]cnc23)cc1 [Example 17, N^6-(4-Methoxy-phenyl)-N^6-methyl-9H-purine-2,6-diamine]			7940 nM		
CN(c1ccccc1)c1nc(N(C)c2ccccc2)c2ccccc2n1 [Example 18, N^2,N^4-Dimethyl-N^2,N^4-diphenyl-quinazoline-2,4-diamine]			> 10000 nM	> 10000 nM	
CN(c1ccc(Cl)cc1)c1nc(N(C)c2ccc(Cl)cc2)c2ccccc2n1 [Example 19, N^2,N^4-Bis(4-chloro-phenyl)-N^2,N^4-dimethyl-quinazoline-2,4-diamine]			> 10000 nM	> 10000 nM	
COc1ccc(Nc2nc(Cl)nc3cc(OC)c(OC)cc23)cc1 [Example 21, (2-Chloro-6,7-dimethoxyquinazolin-4-yl)-(4-methoxy-phenyl)-amine]			> 10000 nM	> 10000 nM	
